Consider seven compounds from patent publication US20220089598A1, “INHIBITORS OF HUMAN IMMUNODEFICIENCY VIRUS REPLICATION” (VIIV HEALTHCARE UK (No. 5) LIMITED, priority 2018, published 2022).

Read-outs that look alike come from different tables or passages of the source. Where only a bound is given, the exact number is not on record here.

As usually defined, the EC50 is the concentration giving half of the maximal effect. For orientation: CC50 means the concentration that lowers cell viability or growth by half.

Common to all, as to format: cell-based
In data set [1] the test system is recombinant NL4-3 virus (Renilla luciferase) in MT-2 cells. Kind of data set: HIV cell culture assay (antiviral activity, luciferase readout). The method in brief: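 Nef-deleted NL4-3 carrying Renilla luciferase, made by transfecting 293T cells, infects MT-2 cells for 4-5 days with serial compound dilutions present. Luciferase is read with a live-cell substrate. EC50 comes from the exponential median-effect equation Fa=1/[1+(ED50/drug conc.)m].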

Another data set deals with uninfected MT2 cells. Kind of data set: Compound cytotoxicity, XTT-based colorimetric assay. The conditions noted are these: day 4, XTT assay. An outline of the steps:
(§1)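 Run under the antiviral-assay protocol but without virus. Viability was read on day 4 and CC50 values were derived from the readout.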
Background: Tetrazolium dyes change colour on reduction, which living cells bring about.

Assay in data set [2]: as above
The conditions noted are these: human; uninfected MT2 cells, day 4, XTT assay. An outline of the steps:
as §1

Take `CS(=O)(=O)Nc1nn(CC(F)F)c2c(-n3c(C(Cc4cc(F)cc(F)c4)NC(=O)Cn4nc(C(F)(F)F)c5c4C(F)(F)C4CC54)nc4nc(-c5ccccc5F)ccc4c3=O)ccc(Cl)c12` [Example 32, N—((S)-1-((3P)-3-(4-chloro-1-(2,2-difluoroethyl)-3-(methylsulfonamido)-1H-indazol-7-yl)-7-(2-fluorophenyl)-4-oxo-3,4-dihydropyrido[2,3-d]pyrimidin-2-yl)-2-(3,5-difluorophenyl)ethyl)-2-((3bS,4aR)-5,5-difluoro-3-(trifluoromethyl)-3b,4,4a,5-tetrahydro-1H-cyclopropa[3,4]cyclopenta[1,2-c]pyrazol-1-yl)acetamide]: the EC50 in data set [1] (MT-2 cells infected for 4-5 days with recombinant NL4-3 virus, luciferase activity, read-out: EC50) is 0.077 nM. For the same compound, in the data set with uninfected MT2 cells, the CC50 is > 500 nM.

On to `Cn1nc(NS(C)(=O)=O)c2c(Cl)ccc(-n3c([C@H](Cc4cc(F)cc(F)c4)NC(=O)Cn4nc(C(F)F)c5c4C(F)(F)[C@@H]4C[C@H]54)nc4nc(-c5cc(F)cc(F)c5)ccc4c3=O)c21` (atropisomer, axis not shown; (P)) [Example 21, N—((S)-1-((3P)-3-(4-chloro-1-methyl-3-(methylsulfonamido)-1H-indazol-7-yl)-7-(3,5-difluorophenyl)-4-oxo-3,4-dihydropyrido[2,3-d]pyrimidin-2-yl)-2-(3,5-difluorophenyl)ethyl)-2-((3bS,4aR)-3-(difluoromethyl)-5,5-difluoro-3b,4,4a,5-tetrahydro-1H-cyclopropa[3,4]cyclopenta[1,2-c]pyrazol-1-yl)acetamide], for which, in data set [1] (Renilla, NL43), the EC50 is 0.08 nM. In data set [2], the CC50 at 4 day is > 100 nM.

In the case of `Cn1nc(NS(C)(=O)=O)c2c(Cl)ccc(-n3c([C@H](Cc4cc(F)cc(F)c4)NC(=O)Cn4nc(C(F)F)c5c4C(F)(F)[C@@H]4C[C@H]54)nc4cc(-c5ccccc5F)cnc4c3=O)c21` (atropisomer, axis not shown; (P)) [Example 38, N—((S)-1-((3P)-3-(4-chloro-1-methyl-3-(methylsulfonamido)-1H-indazol-7-yl)-7-(2-fluorophenyl)-4-oxo-3,4-dihydropyrido[3,2-d]pyrimidin-2-yl)-2-(3,5-difluorophenyl)ethyl)-2-((3bS,4aR)-3-(difluoromethyl)-5,5-difluoro-3b,4,4a,5-tetrahydro-1H-cyclopropa[3,4]cyclopenta[1,2-c]pyrazol-1-yl)acetamide], the EC50 in data set [1] (Renilla, NL43) was determined as 1.9 nM. Besides, in data set [2], the CC50 at 4 day was > 500 nM.

For the compound `Cn1nc(NS(C)(=O)=O)c2c(Cl)ccc(-n3c([C@H](Cc4cc(F)cc(F)c4)NC(=O)Cn4nc(C(F)F)c5c4C(F)(F)[C@@H]4C[C@H]54)nc4nc(-c5ccc(F)cc5)ccc4c3=O)c21` (atropisomer, axis not shown; (P)) [Example 18, N—((S)-1-((3P)-3-(4-chloro-1-methyl-3-(methylsulfonamido)-1H-indazol-7-yl)-7-(4-fluorophenyl)-4-oxo-3,4-dihydropyrido[2,3-d]pyrimidin-2-yl)-2-(3,5-difluorophenyl)ethyl)-2-((3bS,4aR)-3-(difluoromethyl)-5,5-difluoro-3b,4,4a,5-tetrahydro-1H-cyclopropa[3,4]cyclopenta[1,2-c]pyrazol-1-yl)acetamide], the EC50 in data set [1] (Renilla, NL43) stood at 0.036 nM. Moreover, the CC50 at 4 day in data set [2] was > 100 nM.

Take `Cn1nc(NS(C)(=O)=O)c2c(Cl)ccc(-n3c([C@H](Cc4cc(F)cc(F)c4)NC(=O)Cn4nc(C(F)F)c5c4C(F)(F)[C@@H]4C[C@H]54)nc4nc(-c5cc(F)ccc5F)ccc4c3=O)c21` (atropisomer, axis not shown; (P)) [Example 9, N—((S)-1-((3P)-3-(4-chloro-1-methyl-3-(methylsulfonamido)-1H-indazol-7-yl)-7-(2,5-difluorophenyl)-4-oxo-3,4-dihydropyrido[2,3-d]pyrimidin-2-yl)-2-(3,5-difluorophenyl)ethyl)-2-((3bS,4aR)-3-(difluoromethyl)-5,5-difluoro-3b,4,4a,5-tetrahydro-1H-cyclopropa[3,4]cyclopenta[1,2-c]pyrazol-1-yl)acetamide]: in data set [1] (Renilla, NL43), the EC50 came out at 0.12 nM. The CC50 at 4 day in data set [2] was > 500 nM.

Take `CS(=O)(=O)Nc1nn(CC(F)(F)F)c2c(-n3c([C@H](Cc4cc(F)cc(F)c4)NC(=O)Cn4ccc(C5CC5)n4)nc4nc(-c5ccccc5F)ccc4c3=O)ccc(Cl)c12` (atropisomer, axis not shown; (P)) [Example 36, (S)—N-(1-((3P)-3-(4-chloro-3-(methylsulfonamido)-1-(2,2,2-trifluoroethyl)-1H-indazol-7-yl)-7-(2-fluorophenyl)-4-oxo-3,4-dihydropyrido[2,3-d]pyrimidin-2-yl)-2-(3,5-difluorophenyl)ethyl)-2-(3-cyclopropyl-1H-pyrazol-1-yl)acetamide]: the concentration for a half-maximal effect (EC50) in data set [1] (Renilla, NL43) was found to be 0.16 nM. For the same compound, the CC50 at 4 day in data set [2] was > 500 nM.

Take `Cn1nc(NS(C)(=O)=O)c2c(Cl)ccc(-n3c([C@H](Cc4cc(F)cc(F)c4)NC(=O)Cn4nc(C(F)F)c5c4C(F)(F)[C@@H]4C[C@H]54)nc4nc(-c5ccc(Cl)cc5F)ccc4c3=O)c21` (atropisomer, axis not shown; (P)) [Example 8, N—((S)-1-((3P)-3-(4-chloro-1-methyl-3-(methylsulfonamido)-1H-indazol-7-yl)-7-(4-chloro-2-fluorophenyl)-4-oxo-3,4-dihydropyrido[2,3-d]pyrimidin-2-yl)-2-(3,5-difluorophenyl)ethyl)-2-((3bS,4aR)-3-(difluoromethyl)-5,5-difluoro-3b,4,4a,5-tetrahydro-1H-cyclopropa[3,4]cyclopenta[1,2-c]pyrazol-1-yl)acetamide]: in data set [1] (Renilla, NL43), the EC50 was 0.067 nM. The CC50 at 4 day in data set [2] was > 20000 nM.
